The values that follow come from PubChem BioAssay AID1259407 (Chemical Carcinogenesis Research Information System (CCRIS), 2018).

The structures appear in SMILES notation. Active and inactive are the calls of the source. No rule for the calls is given here.

For the data set, the system named is CCRIS mutagenicity, Ames/micronucleus/aberration tests. The experiment in a line: CCRIS mutagenicity studies.
[1] abbreviates: Test System: AMES SALMONELLA TYPHIMURIUM, Strain/Indicator: TA98, Metabolic Activation: NONE, Method: STANDARD PLATE.
Where [2] appears, read: Test System: AMES SALMONELLA TYPHIMURIUM, Strain/Indicator: TA100, Metabolic Activation: NONE, Method: STANDARD PLATE.
[3] abbreviates: Test System: AMES SALMONELLA TYPHIMURIUM, Strain/Indicator: TA97, Metabolic Activation: NONE, Method: PREINCUBATION

Turning to `c1c[nH]cn1`, the mutagenic call reads like this: (Test System: AMES SALMONELLA TYPHIMURIUM, Strain/Indicator: TA97, Metabolic Activation: NONE, Method: STANDARD PLATE) “inactive; negative”; (Test System: AMES SALMONELLA TYPHIMURIUM, Strain/Indicator: TA97, Metabolic Activation: RAT, LIVER, S-9, PHENOBARBITAL AND BETA-NAPHTHOFLAVONE, Method: STANDARD PLATE) “inactive; negative”; under setting [1], “inactive; negative”; (Test System: AMES SALMONELLA TYPHIMURIUM, Strain/Indicator: TA98, Metabolic Activation: RAT, LIVER, S-9, PHENOBARBITAL AND BETA-NAPHTHOFLAVONE, Method: STANDARD PLATE) “inactive; negative”; under setting [2], “inactive; negative”; (Test System: AMES SALMONELLA TYPHIMURIUM, Strain/Indicator: TA100, Metabolic Activation: RAT, LIVER, S-9, PHENOBARBITAL AND BETA-NAPHTHOFLAVONE, Method: STANDARD PLATE) “inactive; negative”. The mutagenic call is “inactive; negative” (Test System: AMES SALMONELLA TYPHIMURIUM, Strain/Indicator: TA102, Metabolic Activation: NONE, Method: STANDARD PLATE); “inactive; negative” (Test System: AMES SALMONELLA TYPHIMURIUM, Strain/Indicator: TA102, Metabolic Activation: RAT, LIVER, S-9, PHENOBARBITAL AND BETA-NAPHTHOFLAVONE, Method: STANDARD PLATE); “inactive; negative” (Test System: UDS RAT HEPATOCYTES, Strain/Indicator: THY INCORP, Metabolic Activation: NONE, Method: AUTORADIOGRAPHY).
On to `O=S(=O)(NO)c1cccc2cccnc12`, for which the mutagenic call was “inactive; negative” under setting [1]; “inactive; negative” (Test System: AMES SALMONELLA TYPHIMURIUM, Strain/Indicator: TA98, Metabolic Activation: RAT, LIVER, S-9, AROCLOR 1254, Method: STANDARD PLATE); “inactive; negative” under setting [2]; “inactive; negative” (Test System: AMES SALMONELLA TYPHIMURIUM, Strain/Indicator: TA100, Metabolic Activation: RAT, LIVER, S-9, AROCLOR 1254, Method: STANDARD PLATE); “inactive; negative” (Test System: AMES SALMONELLA TYPHIMURIUM, Strain/Indicator: TA1535, Metabolic Activation: NONE, Method: STANDARD PLATE); “inactive; negative” (Test System: AMES SALMONELLA TYPHIMURIUM, Strain/Indicator: TA1535, Metabolic Activation: RAT, LIVER, S-9, AROCLOR 1254, Method: STANDARD PLATE). For the same molecule, the mutagenic call was “inactive; negative” (Test System: AMES SALMONELLA TYPHIMURIUM, Strain/Indicator: TA1537, Metabolic Activation: NONE, Method: STANDARD PLATE) and “inactive; negative” (Test System: AMES SALMONELLA TYPHIMURIUM, Strain/Indicator: TA1537, Metabolic Activation: RAT, LIVER, S-9, AROCLOR 1254, Method: STANDARD PLATE).
Take `COc1cc(O)c2c(=O)c3c(O)ccc(O)c3oc2c1`: the mutagenic call is “active; positive” under setting [3]; “active; positive” (Test System: AMES SALMONELLA TYPHIMURIUM, Strain/Indicator: TA97, Metabolic Activation: RAT, LIVER, S-9, PHENOBARBITAL AND 5,6-BENZOFLAVONE, Method: PREINCUBATION); “inactive; negative” (Test System: AMES SALMONELLA TYPHIMURIUM, Strain/Indicator: TA98, Metabolic Activation: RAT, LIVER, S-9, PHENOBARBITAL AND 5,6-BENZOFLAVONE, Method: PREINCUBATION); “inactive; negative” (Test System: AMES SALMONELLA TYPHIMURIUM, Strain/Indicator: TA100, Metabolic Activation: RAT, LIVER, S-9, PHENOBARBITAL AND 5,6-BENZOFLAVONE, Method: PREINCUBATION); “active; positive” (Test System: AMES SALMONELLA TYPHIMURIUM, Strain/Indicator: TA2637, Metabolic Activation: RAT, LIVER, S-9, PHENOBARBITAL AND 5,6-BENZOFLAVONE, Method: PREINCUBATION).
With `CC(C)COC(=O)Cc1ccccc1`, the mutagenic call is “inactive; negative” under setting [3]; “inactive; negative” (Test System: AMES SALMONELLA TYPHIMURIUM, Strain/Indicator: TA97, Metabolic Activation: RAT, LIVER, S-9, AROCLOR 1254, Method: PREINCUBATION); “inactive; negative” (Test System: AMES SALMONELLA TYPHIMURIUM, Strain/Indicator: TA102, Metabolic Activation: NONE, Method: PREINCUBATION); “inactive; negative” (Test System: AMES SALMONELLA TYPHIMURIUM, Strain/Indicator: TA102, Metabolic Activation: RAT, LIVER, S-9, AROCLOR 1254, Method: PREINCUBATION).
With `C[C@H]1CCC/C=C/[C@@H]2C[C@H](O)C[C@H]2[C@H](O)/C=C/C(=O)O1`, the mutagenic call is “inactive; negative” (Test System: Mouse lymphoma, Strain/Indicator: L5178Y (tk+/tk-), Metabolic Activation: None, Method: Suspension/plate) and “equivocal” (Test System: Mouse lymphoma, Strain/Indicator: L5178Y (tk+/tk-), Metabolic Activation: Rat, Liver, S-9, Aroclor 1254, Method: Suspension/plate).
